Results: US12213960B2, “Method of preventing or improving UV-induced skin damage using hydroangenol as active ingredient” (COSMAXBIO CO., LTD., priority 2017, dated 2025)

Tests used:
Format in all cases: cell-based, human
[1] = test system: HaCaT keratinocytes; experiment: MTT assay of cell viability/proliferation after UV-B damage, epidermal cells
Procedure: (§1) Samples obtained in Examples 1 and 2 were measured in regards to the effect in recovering the skin damaged from UV-B exposure. In this experiment, HaCaT keratinocytes and HS68 fibroblasts were used as epidermal and dermal cells, respectively. In order to evaluate the possible efficacy of each sample in preventing or improving the UV-induced damage of skin cells, the cells were seeded into a 96-well microplate at a density of 1.0×10^4 cells/well and stabilized for 24 hours. Next, the culture medium was exchanged to a new one supplemented with the sample, and the cells were incubated for 24 hours. For UV-B irradiation, the culture medium was removed, washed with PBS, and exposed to UV-B radiation at 15 mJ/cm^2. After an incubation of 24 hours in a culture medium supplemented with the sample, the cells were subjected to an MTT assay to measure cell viability. The MTT assay measures the reduction of a tetrazolium component (MTT) into a formazan product by the mitochondria of viable cells. More specifically, 50 μl of a 5 mg/ml MTT solution was added to the cells, and after an incubation of 4 hours, the culture solution was completely removed and cells were dissolved in DMSO. The absorbance of the DMSO solution in the microplate was quantified by spectrophotometry at 540 nm.

[2] = test system: HS68 fibroblasts; experiment: MTT assay of cell viability/proliferation after UV-B damage, dermal cells
Procedure: as §1

[3] = test system: MMP-1 secretion in epidermal HaCat keratinocytes; experiment: Quantitative analysis of MMP-1 secretion (ELISA), epidermal cells; details: epidermal cells damaged by UV-B radiation of 15 mJ/cm2
Procedure: (§2) Samples obtained in Examples 1 and 2 were measured in regards to the inhibitory effect against the secretion of MMP-1 in epidermal HaCat keratinocytes and dermal Hs68 fibroblasts. In order to evaluate the effect of each sample in reducing MMP-1, the cells were seeded into a 24-well microplate at a density of 1.0×10^5 cells/well and stabilized for 24 hours. Next, the culture medium was exchanged to a new one supplemented with the sample, and the cells were incubated for 24 hours. For UV-B irradiation, the culture medium was removed, washed with PBS, and exposed to UV-B radiation at 15 mJ/cm^2. After an incubation of 48 hours in a culture medium supplemented with the sample, the resultant supernatant was measured in regards to the degree of secretion of MMP-1 by using an MMP-1 Human ELISA kit (ab100603, abcam, US).

[4] = test system: MMP-1 secretion in dermal Hs68 fibroblasts; experiment: Quantitative analysis of MMP-1 secretion (ELISA), dermal cells
Procedure: as §2

[5] = test system: procollagen type 1 secretion in dermal Hs68 fibroblasts; experiment: Analysis of procollagen type-1 content (PIP EIA)
Procedure: Samples obtained in Examples 1 or 2 were measured in regards to the effect of increasing procollagen type 1 in dermal Hs68 fibroblasts. In order to evaluate the effect of each sample in increasing secretion of procollagen type 1, the cells were seeded into a 24-well microplate at a density of 1.0×10^5 cells/well and stabilized for 24 hours. Next, the culture medium was exchanged to a new one supplemented with the sample, and the cells were incubated for 24 hours. For UV-B irradiation, the culture medium was removed, washed with PBS, and exposed to UV-B radiation at 15 mJ/cm^2. After an incubation of 48 hours in a culture medium supplemented with the sample, the resultant supernatant was measured in regards to the degree of secretion of procollagen type 1 by using a Procollagen type 1 C-peptide (PIP) EIA kit (Mk101, Takara, Japan).

[6] = test system: hyaluronic acid secretion in epidermal HaCaT keratinocytes; experiment: Analysis of hyaluronic acid content (ELISA), epidermal cells
Procedure: (§3) Samples obtained in Examples 1 and 2 were measured in regards to the effect of increasing hyaluronic acid in epidermal HaCaT keratinocytes and dermal Hs68 fibroblasts. In order to evaluate the effect of each sample in increasing hyaluronic acid, the cells were seeded into a 24-well microplate at a density of 1.0×10^5 cells/well and stabilized for 24 hours. Next, the culture medium was exchanged to a new one supplemented with the sample, and the cells were incubated for 24 hours. For UV-B irradiation, the culture medium was removed, washed with PBS, and exposed to UV-B radiation at 15 mJ/cm^2. After an incubation of 24 hours in a culture medium supplemented with the sample, the resultant supernatant was measured in regards to the degree of secretion of hyaluronic acid by using a TECOR Hyaluronic Acid PLUS ELISA kit (TE 1018-2, TECO Medical Group, US).

[7] = test system: hyaluronic acid secretion in dermal Hs68 fibroblasts; experiment: Analysis of hyaluronic acid content (ELISA), dermal cells
Procedure: as §3

[8] = 1 μM hydrangenol, epidermal cells, UV-B 15 mJ/cm2
[9] = epidermal cells damaged by UV-B radiation of 15 mJ/cm2
[10] = 1 μM hydrangenol, dermal cells, UV-B 15 mJ/cm2
[11] = dermal cells damaged by UV-B radiation of 15 mJ/cm2

O=C1OC(c2ccc(O)cc2)Cc2cccc(O)c21 (stereo not drawn) [hydrangenol, 8-hydroxy-3-(4-hydroxyphenyl)-3,4-dihydroisochromen-1-one]
cell proliferation effect compared with 10 μM EGCG [1, 8]: equivalent to 10 μM EGCG
cell proliferation [1, 9]: effective in promoting cell proliferation
cytotoxicity [1, 9]: non-cytotoxic
cell proliferation effect compared with 10 μM EGCG [2, 10]: equivalent to 10 μM EGCG
cell proliferation [2, 11]: effective in promoting cell proliferation
cytotoxicity [2, 11]: non-cytotoxic
production of MMP-1 [3]: inhibited the production of MMP-1 in a concentration-dependent manner
production of MMP-1 [4, 11]: inhibited the production of MMP-1 in a concentration-dependent manner
inhibitory effect against the production of MMP-1 compared with EGCG ([4]; dermal cells, same concentration as EGCG): far superior to the EGCG
procollagen production effect compared with 10 μM EGCG [5, 10]: equivalent to 10 μM EGCG
production of procollagen [5, 11]: increased the production of procollagen
effect in producing hyaluronic acid [6, 8]: excellent effect in producing hyaluronic acid
production of hyaluronic acid [6, 9]: increased the production of hyaluronic acid
effect in producing hyaluronic acid [7, 10]: excellent effect in producing hyaluronic acid
production of hyaluronic acid [7, 11]: increased the production of hyaluronic acid
